The values below are quoted from earlier work in patent US20120015026A1, “PHARMACEUTICAL COMPOSITION CONTAINING A DRUG AND SIRNA” (priority 2009, published 2012).

Where only a bound is given, the exact number is not on record here.

The conditions of data set [1]: organic solvents such as ethanol, ethylacetate, dichloromethane.

Consider `C/C(=C\c1csc(C)n1)[C@@H]1C[C@@H]2O[C@]2(C)CCC[C@H](C)[C@H](O)[C@@H](C)C(=O)C(C)(C)[C@@H](O)CC(=O)O1` [EPO906, epothilone B], for which the solubility in water was < 0.1 µg/mL. The “solubility in organic solvents” value in data set [1] is “highly soluble”.
